# Reference: patent publication US5968910A, “Compositions containing two or three inhibitors of different HIV reverse transcriptases” (priority 1994, dated 1999)
# Like-named read-outs stand apart in the source and are kept apart here.
# Assays:
# HIV-1(IIIB) = assay: Knock-out concentrations: breakthrough of HIV-1(IIIB)-induced cytopathicity in CEM cell cultures; type: cell-based; settings: for activity at 0.1 µg/mL / activity at 0.5 µg/mL / activity at 2.5 µg/mL: Human immunodeficiency virus 1, IIIB, CCRF-CEM, read-out: HIV-1-induced cytopathicity in cell culture; for activity at 0.1 µg/mL: 0.1 μg/ml; for activity at 0.5 µg/mL: 0.5 μg/ml; for activity at 2.5 µg/mL: 2.5 μg/ml
# How it was run: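 CEM cells in RPMI 1640 with 10% FBS infected with HIV-1(IIIB) at ~1000× CCID50, subcultured every 3–4 days into fresh uninfected cells with drug held constant for 10 subcultivations (35 days), then ≥5 drug-free passages. Breakthrough scored by syncytium formation. Combinations used the two lowest single-drug starting concentrations.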
# HIV-1(IIIB) (WT) = assay: microbe, parasite or virus in culture; type: cell-based; settings: Human immunodeficiency virus 1, IIIB, CCRF-CEM
# How it was run: (§1)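 CEM cells at 250,000 cells/ml were infected with HIV-1 at 100 CCID50 per ml, then mixed with serial dilutions of test compound. After 4 days at 37° C., cultures were scored for syncytium formation.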
# HIV-1/III(0.1) 103-Asn = assay: Sensitivity of mutant HIV-1 strain in CEM cell cultures; type: cell-based; settings: Human immunodeficiency virus 1, CCRF-CEM; Table 5; read-out: EC50
# How it was run: as §1
# HIV-1/Pyr (181-Cys) = assay: as above; type: cell-based; settings: Human immunodeficiency virus 1, CCRF-CEM; CEM cells, Table 1; read-out: 50% Effective Concentration
# How it was run: as §1
# HIV-1/Nev (106-Ala) = assay: as above; type: cell-based; settings: Human immunodeficiency virus 1, CCRF-CEM; CEM cells, Table 1; read-out: 50% Effective Concentration
# How it was run: as §1
# HIV-1/IV(0.1) 103-Thr = assay: as above; type: cell-based; settings: Human immunodeficiency virus 1, CCRF-CEM; Table 5; read-out: EC50
# How it was run: as §1
# [1] = system: HIV-1/TIBO R82150 (100-Ile); assay: as above; type: cell-based; settings: Human immunodeficiency virus 1, CCRF-CEM; CEM cells, Table 1; read-out: 50% Effective Concentration
# How it was run: as §1
# [2] = system: HIV-1/V(0.1) 101-Ile + 141-Glu; assay: as above; type: cell-based; settings: Human immunodeficiency virus 1, CCRF-CEM; Table 5; read-out: EC50
# How it was run: as §1
# [3] = system: HIV-1/TIBO R82913 (103-Asn); assay: as above; type: cell-based; settings: Human immunodeficiency virus 1, CCRF-CEM; CEM cells, Table 1; read-out: 50% Effective Concentration
# How it was run: as §1
# HIV-1/II(0.1) 100-Ile = assay: as above; type: cell-based; settings: Human immunodeficiency virus 1, CCRF-CEM; Table 5; read-out: EC50
# How it was run: as §1
# HIV-1/V(0.5) 103-Asn = assay: as above; type: cell-based; settings: Human immunodeficiency virus 1, CCRF-CEM; Table 5; read-out: EC50
# How it was run: as §1
# HIV-1/I(0.1) 103-Asn = assay: as above; type: cell-based; settings: Human immunodeficiency virus 1, CCRF-CEM; Table 5; read-out: EC50
# How it was run: as §1
# [4] = system: HIV-1/TSAO-m^3 T (138-Lys); assay: as above; type: cell-based; settings: Human immunodeficiency virus 1, CCRF-CEM; CEM cells, Table 1; read-out: 50% Effective Concentration
# How it was run: as §1
# HIV-1 RT (WT) = HIV-1 RT (WT) (Human immunodeficiency virus type 1 group M subtype B, UniProt P03366); assay: biochemical
# How it was run: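 Recombinant HIV-1 RT incubated 30 min at 37° C with poly(C).oligo(dG) (0.1 mM) and [³H]dGTP (2.95 μM) in Tris pH 7.8 with 5 mM MgCl2, 150 mM KCl, DTT, glutathione, Triton X-100; 5-fold compound dilutions. Acid-insoluble radioactivity counted after TCA/pyrophosphate precipitation.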
# [5] = 936 h, day 39 post infection, compound absent from day 35
# [6] = 1008 h, day 42 post infection, compound absent from day 35
# [7] = 1104 h, day 46 post infection, compound absent from day 35
# [8] = 1176 h, day 49 post infection, compound absent from day 35
# [9] = 1272 h, day 53 post infection, compound absent from day 35
structure (smiles),measurement,setting,value
Cc1occc1C(=S)Nc1ccc(Cl)c(C(=O)OC2CCCC2)c1 [Compound IV],"prevention of virus breakthrough, fold more efficient than BHAP",HIV-1(IIIB),at least 5 fold
same,"prevention of virus breakthrough, fold more efficient than nevirapine",HIV-1(IIIB),≥ 25 fold
same,activity at 0.1 µg/mL,"HIV-1(IIIB); 96 h, day 4 post infection",0%
same,activity at 0.5 µg/mL,"HIV-1(IIIB); 96 h, day 4 post infection",0%
same,activity at 2.5 µg/mL,"HIV-1(IIIB); 96 h, day 4 post infection",0%
same,activity at 0.1 µg/mL,"HIV-1(IIIB); 192 h, day 8 post infection",0%
same,activity at 0.5 µg/mL,"HIV-1(IIIB); 192 h, day 8 post infection",0%
same,activity at 2.5 µg/mL,"HIV-1(IIIB); 192 h, day 8 post infection",0%
same,activity at 0.1 µg/mL,"HIV-1(IIIB); 264 h, day 11 post infection",0%
same,activity at 0.5 µg/mL,"HIV-1(IIIB); 264 h, day 11 post infection",0%
same,activity at 2.5 µg/mL,"HIV-1(IIIB); 264 h, day 11 post infection",0%
same,activity at 0.1 µg/mL,"HIV-1(IIIB); 336 h, day 14 post infection",6.2%
same,activity at 0.5 µg/mL,"HIV-1(IIIB); 336 h, day 14 post infection",0%
same,activity at 2.5 µg/mL,"HIV-1(IIIB); 336 h, day 14 post infection",0%
same,activity at 0.1 µg/mL,"HIV-1(IIIB); 408 h, day 17 post infection",25%
same,activity at 0.5 µg/mL,"HIV-1(IIIB); 408 h, day 17 post infection",0%
same,activity at 2.5 µg/mL,"HIV-1(IIIB); 408 h, day 17 post infection",0%
same,activity at 0.1 µg/mL,"HIV-1(IIIB); 504 h, day 21 post infection",87.5%
same,activity at 0.5 µg/mL,"HIV-1(IIIB); 504 h, day 21 post infection",0%
same,activity at 2.5 µg/mL,"HIV-1(IIIB); 504 h, day 21 post infection",0%
same,activity at 0.1 µg/mL,"HIV-1(IIIB); 600 h, day 25 post infection",100%
same,activity at 0.5 µg/mL,"HIV-1(IIIB); 600 h, day 25 post infection",0%
same,activity at 2.5 µg/mL,"HIV-1(IIIB); 600 h, day 25 post infection",0%
same,activity at 0.1 µg/mL,"HIV-1(IIIB); 672 h, day 28 post infection",100%
same,activity at 0.5 µg/mL,"HIV-1(IIIB); 672 h, day 28 post infection",0%
same,activity at 2.5 µg/mL,"HIV-1(IIIB); 672 h, day 28 post infection",0%
same,activity at 0.1 µg/mL,"HIV-1(IIIB); 768 h, day 32 post infection",100%
same,activity at 0.5 µg/mL,"HIV-1(IIIB); 768 h, day 32 post infection",0%
same,activity at 2.5 µg/mL,"HIV-1(IIIB); 768 h, day 32 post infection",0%
same,activity at 0.1 µg/mL,"HIV-1(IIIB); 840 h, day 35 post infection",100%
same,activity at 0.5 µg/mL,"HIV-1(IIIB); 840 h, day 35 post infection",0%
same,activity at 2.5 µg/mL,"HIV-1(IIIB); 840 h, day 35 post infection",0%
same,activity at 0.1 µg/mL,HIV-1(IIIB); [5],100%
same,activity at 0.5 µg/mL,HIV-1(IIIB); [5],0%
same,activity at 2.5 µg/mL,HIV-1(IIIB); [5],0%
same,activity at 0.1 µg/mL,HIV-1(IIIB); [6],100%
same,activity at 0.5 µg/mL,HIV-1(IIIB); [6],0%
same,activity at 2.5 µg/mL,HIV-1(IIIB); [6],0%
same,activity at 0.1 µg/mL,HIV-1(IIIB); [7],100%
same,activity at 0.5 µg/mL,HIV-1(IIIB); [7],0%
same,activity at 2.5 µg/mL,HIV-1(IIIB); [7],0%
same,activity at 0.1 µg/mL,HIV-1(IIIB); [8],100%
same,activity at 0.5 µg/mL,HIV-1(IIIB); [8],0%
same,activity at 2.5 µg/mL,HIV-1(IIIB); [8],0%
same,activity at 0.1 µg/mL,HIV-1(IIIB); [9],100%
same,activity at 0.5 µg/mL,HIV-1(IIIB); [9],0%
same,activity at 2.5 µg/mL,HIV-1(IIIB); [9],0%
same,concentration at which virus emerged (virus breakthrough),"HIV-1(IIIB); tested at 0.1, 0.5 and 2.5 μg/ml, 35 days",0.1 µg/mL
same,EC50,"HIV-1(IIIB) (WT); CEM cells, Table 1, read-out: 50% Effective Concentration",0.005 µg/mL
same,EC50,"HIV-1(IIIB) (WT); HIV-1 (III8), Table 5, read-out: EC50",0.005 µg/mL
same,IC50,"HIV-1(IIIB) (WT); range stated for Compounds I-V together, read-out: 50% inhibitory concentration, HIV-1(IIIB) replication in CEM cells",0.004 to 0.05 µg/mL
same,EC50,HIV-1/III(0.1) 103-Asn,0.14 µg/mL
same,EC50,HIV-1/Pyr (181-Cys),0.045 µg/mL
same,EC50,HIV-1/Nev (106-Ala),0.04 µg/mL
same,EC50,HIV-1/IV(0.1) 103-Thr,0.53 µg/mL
same,EC50,[1],0.17 µg/mL
same,EC50,[2],0.11 µg/mL
same,EC50,[3],0.7 µg/mL
same,EC50,HIV-1/II(0.1) 100-Ile,0.4 µg/mL
same,EC50,HIV-1/V(0.5) 103-Asn,0.65 µg/mL
same,EC50,HIV-1/I(0.1) 103-Asn,0.2 µg/mL
same,EC50,[4],0.035 µg/mL
same,IC50,"HIV-1 RT (WT); range stated for the compounds together, poly(C).oligo(dG), 2.95 μM [2,8-3H]dGTP, read-out: IC50 on recombinant HIV-1 RT",49.5 to 212 nM
same,IC50,"HIV-1 RT (WT); substrate [2,8-3H]dGTP 2.95 μM, template poly(rC)oligo(dG), read-out: IC50, anti-HIV-1 RT (WT) activity (converted)",49.5 nM
